Results taken from PubChem BioAssay AID1949 (Southern Research Institute, 2009).
≈ marks a conversion by molar mass, not a printed value. Records with an inconclusive call do not appear. Calls of active or inactive are those of the source. The rule behind the calls is not given here.

Each compound was assayed on M. tuberculosis H37Rv growth inhibition (assay: Confirmatory growth inhibition assay against Mycobacterium tuberculosis H37Rv, potency (AID 1949);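 note: bacteria grown 7 days with compound before Alamar blue readout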).

SMILES	IC50
CCN(CC)c1ccc(NC(=O)c2cnccn2)cc1	2.37 µg/mL (≈ 8.77 µM)
COc1ccc2nc(NC(=O)C(Sc3ccccc3)c3ccccc3)sc2c1 (stereo not drawn)	4.87 µg/mL (≈ 12 µM)
Fc1ccc(C2=CC(c3ccc(Br)cc3)n3nnnc3N2)cc1 (stereo not drawn)	22.6 µg/mL (≈ 60.7 µM)
CCOc1ccc(NC(=O)CSc2nc3ccc([N+](=O)[O-])cc3s2)cc1	1.99 µg/mL (≈ 5.11 µM)
O=C(Oc1cccc2cccnc12)c1cc2ccccc2oc1=O	3.06 µg/mL (≈ 9.64 µM)
Cc1sc(NC(=O)c2cc3ccccc3oc2=O)c(C(=O)OC(C)C)c1C	0.66 µg/mL (≈ 1.71 µM)
CC(C)(C)OC(=O)CS(=O)c1ccc(S(=O)(=O)C(F)(F)F)cc1[N+](=O)[O-] (stereo not drawn)	2.14 µg/mL (≈ 5.13 µM)
Nc1ncnc(Sc2ncccn2)c1[N+](=O)[O-]	> 50 µg/mL (inactive)
CNCCCOc1ccc(Cl)cc1C(C)(C)C	7.95 µg/mL (≈ 31.1 µM)
Cc1c(OC(=O)c2ccccc2Cl)ccc2c1CCCC2	2.51 µg/mL (≈ 8.34 µM)
c1ccc2c(C(c3ccncc3)c3c[nH]c4ccccc34)c[nH]c2c1	12.2 µg/mL (≈ 37.8 µM)
COC(=O)COc1ccc2c(=O)c(Oc3ccccc3F)c(C)oc2c1C	6.55 µg/mL (≈ 17.6 µM)
Cc1cc(-c2csc(Nc3ccc(S(N)(=O)=O)cc3)n2)ccc1F	2.34 µg/mL (≈ 6.44 µM)
Cc1ccc(SC(C)C(=O)Nc2ccc(Cl)c(Cl)c2)cc1 (stereo not drawn)	12.3 µg/mL (≈ 36.1 µM)
O=[N+]([O-])c1c(-n2cccn2)nn(-c2ccccc2)c1C(Cl)Cl	3.09 µg/mL (≈ 9.14 µM)
CCCCn1c(NCc2ccc(N(CC)CC)cc2)nc2ccccc21	11.2 µg/mL (≈ 32 µM)
COC(=O)C1=C(C)NC2=C(C(=O)CC(c3ccccc3)C2)C1c1ccccc1Br (stereo not drawn)	7.5 µg/mL (≈ 16.6 µM)
O=C1c2ccccc2C2=Nc3cc(Cl)ccc3OC12O (stereo not drawn)	5.5 µg/mL (≈ 19.3 µM)
COc1ccc(C2=CC(c3ccccc3Cl)n3nnnc3N2)cc1OC (stereo not drawn)	24.1 µg/mL (≈ 65 µM)
CCCOC(=O)c1ccc(NC(=S)NC(=O)c2ccc(Cl)cc2)cc1	0.8 µg/mL (≈ 2.12 µM)

SMILES	IC50
Cc1ccc([N+](=O)[O-])cc1S(=O)(=O)Nc1cc(Br)c(O)c2ccccc12	11 µg/mL (≈ 25.1 µM)
O=c1cc(-c2ccccc2)nc2c(-c3cccc4ccccc34)c(Cc3ccccc3)[nH]n12	41.9 µg/mL (≈ 98.1 µM)
COc1cc(CNC(C)c2ccccc2)cc(Br)c1OCc1ccc(F)cc1 (stereo not drawn)	4.06 µg/mL (≈ 9.14 µM)
Cc1ccc(CSCC(=O)Nc2ccccc2)cc1	2.88 µg/mL (≈ 10.6 µM)
CCOc1cc(CNC23CC4CC(CC(C4)C2)C3)ccc1OCc1cccs1	0.82 µg/mL (≈ 2.06 µM)
CCCCc1cc(=O)oc2cc(OCC(=O)OCc3ccccc3)c(Cl)cc12	< 0.1 µg/mL
O=c1c2ccccc2nc(CSc2ncnc3ccccc23)n1-c1ccc(Cl)c(Cl)c1	> 50 µg/mL (inactive)
COC(=O)COc1cc2oc(=O)cc(-c3ccccc3)c2cc1Cl	29 µg/mL (≈ 84.1 µM)
Cc1cccc2c1N(CCOc1ccc(C(C)(C)C)cc1)C(=O)C2=O	> 50 µg/mL (inactive)
CCOC(=O)CSc1nnc2c3sc4nc(N5CCOCC5)c5c(c4c3ncn12)CC(C)(C)OC5	1.33 µg/mL (≈ 2.58 µM)
COc1ccc2oc(=O)c(C(=O)Oc3ccc(Cl)cc3)cc2c1	> 50 µg/mL (inactive)
CCN(CC)CCC(=O)c1ccc(C(C)C)cc1	47.6 µg/mL (≈ 193 µM)
Cc1cc(NC(=O)CSc2nnc(-c3ccccc3Cl)o2)no1	2.43 µg/mL (≈ 6.93 µM)
CC(=O)c1cccc(Nc2cc(C)nc3c2ccc2ccccc23)c1	3.1 µg/mL (≈ 9.5 µM)
Cc1ccc(OCCN2CCN(c3nc(NCc4ccccc4)c4ccccc4n3)CC2)cc1	1.42 µg/mL (≈ 3.13 µM)
O=C1N(Cc2ccccc2Cl)c2ccc(Br)cc2C1(O)c1c[nH]c2ccccc12 (stereo not drawn)	1.68 µg/mL (≈ 3.59 µM)
COC(=O)COc1ccc(NC(=O)COc2ccc(C(C)(C)C)cc2)cc1	0.17 µg/mL (≈ 0.458 µM)
Cc1cccc(NC(=O)Nc2ccc(C(F)(F)F)cc2)c1	8.07 µg/mL (≈ 27.4 µM)
COc1c2ccoc2nc2c(OC)cccc12	1.76 µg/mL (≈ 7.68 µM)
O=C(CC1Sc2ccc(Cl)cc2NC1=O)Nc1ccc([N+](=O)[O-])cc1 (stereo not drawn)	2.53 µg/mL (≈ 6.7 µM)

SMILES	IC50
Nc1ccc2nc(SCC(=O)Nc3cccc(Cl)c3)sc2c1	> 50 µg/mL (inactive)
N=c1c2c(-c3ccccc3)c(-c3ccccc3)n(Cc3ccco3)c2ncn1Cc1ccco1	3.09 µg/mL (≈ 6.92 µM)
Cc1ccc(OCC(=O)c2ccc(Br)cc2)cc1C	47.7 µg/mL (≈ 149 µM)
CN1CCN(c2ccc(NC(=O)c3ccc(Cl)c(Cl)c3)cc2)CC1	> 50 µg/mL (inactive)
O=C(COc1ccc(C(=O)NCc2ccccc2)cc1)OC1CCCCC1	0.73 µg/mL (≈ 1.99 µM)
Cc1cccc(NC(=S)NC(=O)CC23CC4CC(CC(C4)C2)C3)c1	2.89 µg/mL (≈ 8.44 µM)
CC(CCc1ccccc1)NC(=O)c1ccc(Cl)cc1[N+](=O)[O-] (stereo not drawn)	3.7 µg/mL (≈ 11.1 µM)
Nc1c(C(=O)NCc2ccc(Cl)cc2)sc2nc3c(c(C(F)(F)F)c12)CCC3	9.45 µg/mL (≈ 22.2 µM)
CCOC(=O)/C=C/C(=O)Nc1nc(-c2ccccc2)cs1	0.53 µg/mL (≈ 1.75 µM)
OC(COCCC12CC3CC(CC(C3)C1)C2)CN1CCc2ccccc2C1 (stereo not drawn)	3.49 µg/mL (≈ 9.44 µM)
COC(=O)C(C)Oc1ccc2c(=O)c(Oc3ccccc3Br)coc2c1 (stereo not drawn)	2.96 µg/mL (≈ 7.06 µM)
O=C(NC1CC1c1ccccc1)C12CC3CC(CC(C3)C1)C2 (stereo not drawn)	14.6 µg/mL (≈ 49.5 µM)
CCOC(=O)C1CCN(C2=NC(=O)/C(=C\c3ccc(Cl)cc3Cl)S2)CC1	0.41 µg/mL (≈ 0.992 µM)
O=C(C1CCCN1S(=O)(=O)c1ccc(Cl)cc1)N1CCOCC1 (stereo not drawn)	20 µg/mL (≈ 55.7 µM)
O=C(Nc1nccs1)c1cn(-c2ccccc2)nc1-c1ccco1	> 50 µg/mL (inactive)
FC(F)(F)c1cccc(NC(=S)Nc2cccc(Cl)c2)c1	13.5 µg/mL (≈ 40.9 µM)
CSc1nsc(SCC(=O)N2CCc3ccccc32)n1	12 µg/mL (≈ 37 µM)
O=C(COc1ccc(Br)cc1)Nc1ccccc1F	29.5 µg/mL (≈ 91.1 µM)
